This note sets out measurements from patent US9522888B2, “Substituted bicyclic compounds” (BRISTOL-MYERS SQUIBB COMPANY, priority 2014, dated 2016).

In one assay the test system is circulating lymphocytes. Kind of assay: Blood Lymphocyte Reduction (BLR) assay in rat. The format is in vivo, Lewis rats. The following applies: blood lymphocytes, oral, 0.1 mg/kg, 24 hr post-dose. How it is done:
Blood Lymphocyte Reduction (BLR) Assay in Rodent:
Lewis rats or BALB/c mice were dosed orally with vehicle alone (polyethylene glycol 300, “PEG300”) or with test compounds. Compounds were dosed as a solution or suspension in the vehicle, adjusted to reflect the free amount of test article in the event that salt forms are utilized. Blood was drawn at 24 hr and blood lymphocyte counts were determined on an ADVIA 120 Hematology Analyzer (Siemens Healthcare Diagnostics). The results were measured as a reduction in the percentage of circulating lymphocytes as compared to the vehicle treated group at the time of measurement. The results represent the average results of all animals within each treatment group (n=2-4).

The next assay has as its target human S1P1 (Homo sapiens (Human), UniProt P21453). Description: S1P1 binding assay (33P-S1P radioligand competition, CHO cell membranes). The following applies: phosphate examples; read-out: S1P1 Binding. The gist of the method:
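Radioligand is 33P-S1P, competing for membranes from human S1P1-expressing CHO cells. Membranes resuspended in 50 mM HEPES pH 7.5, 100 mM NaCl, 1 mM MgCl2, 2 mM EDTA.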

Assay [1] concerns the target S1P1 (membranes prepared from S1P1/CHO cells) (Homo sapiens (Human), UniProt P21453). Description: Receptor [35S] GTPγS binding assay (S1P1 GTPγS). The format is biochemical. The following applies: phosphate examples; read-out: S1P1 GTPγS. The gist of the method: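 Agonist-stimulated [35S]GTPγS binding (0.2 nM final) to S1P1/CHO membranes, 3 μg protein/well, measured after 45 min at room temperature. Buffer contained 10 μM GDP, saponin and fatty-acid-free BSA at pH 7.5. Compounds tested as 11-point 3-fold series; bound label captured on filters, scintillation-counted, EC50 reported.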
For orientation: GTPγS resists hydrolysis and so accumulates on activated G proteins.

Assay [2] deals with S1P3 (membranes prepared from EDG3-Gal5-bla HEK293T cells) (Homo sapiens (Human), UniProt Q99500). Description: Receptor [35S] GTPγS binding assay (S1P3 GTPγS). The format is biochemical. The following applies: phosphate examples; read-out: S1P3 GTPγS. The gist of the method:
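Membranes (3 μg protein/well) from S1P1/CHO cells or EDG3-Gal5-bla HEK293T cells (S1P3) were incubated 45 min at room temperature with 0.2 nM final [35S]GTPγS in HEPES pH 7.5 buffer with 10 μM GDP, MgCl2 and saponin. Bound label counted after filtration; EC50 from 11-point, 3-fold dilutions.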

For the next assay, the target named is hS1P1/CHO cells (Homo sapiens (Human), UniProt P21453). Kind of assay: hS1P1 ERK phosphorylation (S1P1 pERK). It counts as cell-based. Conditions: phosphate examples. Put shortly: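 Agonism read as ERK phosphorylation (SureFire pERK) in hS1P1/CHO lysates, normalised to the maximal effect of 10 μM S1P. Cells were held 2 h in serum-free medium, then treated with compound for 7 min at 37° C. in HBSS/20 mM HEPES.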
Sequence of hS1P1/CHO cells (P21453 whole entry): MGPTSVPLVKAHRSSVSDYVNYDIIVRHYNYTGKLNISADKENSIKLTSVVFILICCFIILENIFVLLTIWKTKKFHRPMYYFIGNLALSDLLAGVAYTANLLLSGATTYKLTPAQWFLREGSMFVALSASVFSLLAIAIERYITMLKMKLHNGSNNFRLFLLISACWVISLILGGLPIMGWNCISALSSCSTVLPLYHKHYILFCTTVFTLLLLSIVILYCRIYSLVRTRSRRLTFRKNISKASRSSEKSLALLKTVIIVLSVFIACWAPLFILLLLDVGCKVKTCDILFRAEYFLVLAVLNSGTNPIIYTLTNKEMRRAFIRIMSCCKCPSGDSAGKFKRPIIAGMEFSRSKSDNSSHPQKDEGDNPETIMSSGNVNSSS

Sequence of human S1P1 (P21453 whole entry): as above
Sequence of S1P1 (membranes prepared from S1P1/CHO cells) (P21453 whole entry): as above
Sequence of S1P3 (membranes prepared from EDG3-Gal5-bla HEK293T cells) (Q99500 whole entry): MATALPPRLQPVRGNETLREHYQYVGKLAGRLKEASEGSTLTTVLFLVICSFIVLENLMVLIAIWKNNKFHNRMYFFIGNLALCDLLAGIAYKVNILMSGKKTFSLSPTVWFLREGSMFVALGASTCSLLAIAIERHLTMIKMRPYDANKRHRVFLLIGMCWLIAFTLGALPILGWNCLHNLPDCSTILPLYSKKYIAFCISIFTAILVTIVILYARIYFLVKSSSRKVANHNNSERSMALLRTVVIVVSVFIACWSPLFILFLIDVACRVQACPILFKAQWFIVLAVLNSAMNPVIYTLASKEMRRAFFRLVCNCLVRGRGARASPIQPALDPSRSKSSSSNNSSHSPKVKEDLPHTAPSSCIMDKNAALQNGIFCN

Consider `COc1cccc(CC[C@H]2CCc3cc([C@H]4CC[C@](N)(CO)C4)ccc3C2)c1` [Example 676, ((1R,3S)-1-amino-3-((S)-6-(3-methoxyphenethyl)-5,6,7,8-tetrahydronaphthalen-2-yl)cyclopentyl) methanol], for which the “Percent reduction vs. control at 24 hr post-dose” value in the assay with circulating lymphocytes stood at 63%.
For `N[C@]1(COP(=O)(O)O)CC[C@H](c2ccc3c(c2)CC[C@@H](COCc2cccs2)C3)C1` [compound 472], the IC50 on human S1P1 lay in the range of 100 to 1000 nM. The figures for the EC50 (in assay [1]; in assay [2]; at hS1P1/CHO cells) were 100 to 1000 nM, > 625 nM and < 10 nM, respectively.
Turning to `CN(C)Cc1cccc(OC[C@@H]2CCc3cc([C@H]4CC[C@](N)(COP(=O)(O)O)C4)ccc3C2)c1` [compound 490], on human S1P1, the IC50 was < 10 nM. Further, the EC50 was 100 to 1000 nM in assay [1], > 625 nM in assay [2] and 10 to 100 nM at hS1P1/CHO cells.
For `CC(C)CSC[C@H]1CCc2cc([C@H]3CC[C@](N)(COP(=O)(O)O)C3)ccc2C1` [compound 509], at human S1P1, the IC50 fell in the range of 10 to 100 nM. In addition, the EC50 in assay [1] is 10 to 100 nM; in assay [2] it was > 625 nM; at hS1P1/CHO cells, < 10 nM.
Regarding `COc1cccc(F)c1CC[C@H]1CCc2cc([C@@H]3CC[C@@](N)(COP(=O)(O)O)C3)ccc2C1` (single isomer, unassigned) [compound 607], the IC50 on human S1P1 was 100 to 1000 nM. Also, the EC50 in assay [1] was 100 to 1000 nM; in assay [2], > 625 nM; at hS1P1/CHO cells it was 10 to 100 nM.
With `Cc1ccc(OC[C@H]2CCc3cc([C@H]4CC[C@](N)(COP(=O)(O)O)C4)ccc3C2)cc1` [compound 466], on human S1P1, the IC50 lay in the range of 10 to 100 nM. For the same compound, the figures for the EC50 (in assay [1]; in assay [2]; on hS1P1/CHO cells) were 10 to 100 nM, > 625 nM and 10 to 100 nM, respectively.
As to `COc1cc(OC[C@@H]2CCc3cc([C@H]4CC[C@](N)(COP(=O)(O)O)C4)ccc3C2)ccc1Cl` [compound 493], on human S1P1, the IC50 was < 10 nM. Besides, the values for the EC50 (in assay [1]; in assay [2]; at hS1P1/CHO cells) were < 10 nM, > 625 nM and 10 to 100 nM, respectively.
For the compound `N[C@@]1(COP(=O)(O)O)CC[C@@H](c2ccc3c(c2)CC[C@H](OCCOc2ccccc2)C3)C1` (single isomer, unassigned) [compound 582], the IC50 at human S1P1 was < 10 nM. Further, the EC50 in assay [1] was 10 to 100 nM; in assay [2], > 625 nM; on hS1P1/CHO cells, < 10 nM.
For `CC(C)OCCC[C@@H]1CCc2cc([C@@H]3CC[C@@](N)(COP(=O)(O)O)C3)ccc2C1` [compound 602], the IC50 on human S1P1 is < 10 nM. The EC50 was < 10 nM in assay [1], > 625 nM in assay [2] and < 10 nM at hS1P1/CHO cells.
As to `CCCSC[C@H]1CCc2cc([C@H]3CC[C@](N)(COP(=O)(O)O)C3)ccc2C1` [compound 532], at human S1P1, the IC50 was < 10 nM. Besides, the EC50 was < 10 nM in assay [1], > 625 nM in assay [2] and < 10 nM on hS1P1/CHO cells.
On to `CCCCCCCOC1CCc2cc([C@H]3CC[C@](N)(COP(=O)(O)O)C3)ccc2C1` (stereo partly drawn) [compound 432], for which the IC50 at human S1P1 is < 10 nM. Besides, the EC50 in assay [1] is < 10 nM; in assay [2], > 100 nM; on hS1P1/CHO cells, 10 to 100 nM.
As to `CCCCCCNC(=O)OC1CCc2cc([C@H]3CC[C@@](N)(COP(=O)(O)O)C3)ccc2C1` (stereo partly drawn) [compound 626], the IC50 at human S1P1 lay in the range of 10 to 100 nM. Further, the EC50 was 10 to 100 nM in assay [1], > 625 nM in assay [2] and < 10 nM at hS1P1/CHO cells.
Consider `CCCCCO[C@H]1CCc2cc([C@H]3CC[C@](N)(COP(=O)(O)O)C3)ccc2C1` [compound 431], for which, at human S1P1, the IC50 was in the range of 10 to 100 nM. In addition, the EC50 in assay [1] is 100 to 1000 nM; in assay [2] it was > 625 nM; at hS1P1/CHO cells it was < 10 nM.
The like results for `CCCCCC1CCc2cc([C@H]3CC[C@](N)(COP(=O)(O)O)C3)ccc2C1` (stereo partly drawn) [compound 576] were, in that order, 10 to 100 nM, 100 to 1000 nM, > 625 nM and 10 to 100 nM.
Turning to `Cc1ccccc1OC[C@@H]1CCc2cc([C@H]3CC[C@](N)(COP(=O)(O)O)C3)ccc2C1` [compound 469], on human S1P1, the IC50 lay within 10 to 100 nM. Further, the EC50 is 10 to 100 nM in assay [1], > 625 nM in assay [2] and < 10 nM on hS1P1/CHO cells.
Consider `N[C@]1(COP(=O)(O)O)CC[C@H](c2ccc3c(c2)CC[C@H](C[S+]([O-])c2ccccc2)C3)C1` (stereo partly drawn) [Example 667, ((1R,3S)-1-amino-3-((6S)-6-((phenylsulfinyl)methyl)-5,6,7,8-tetrahydronaphthalen-2-yl)cyclopentyl)methyl dihydrogen phosphate], for which the IC50 on human S1P1 was 100 to 1000 nM. The EC50 in assay [1] is 100 to 1000 nM; in assay [2], > 625 nM; on hS1P1/CHO cells, 100 to 1000 nM.
For `CCCCOCCO[C@@H]1CCc2cc([C@@H]3CC[C@@](N)(COP(=O)(O)O)C3)ccc2C1` [compound 592], the IC50 on human S1P1 is < 10 nM. Further, the EC50 in assay [1] is 10 to 100 nM; in assay [2], > 625 nM; on hS1P1/CHO cells it was < 10 nM.
For the compound `CC(C)c1ccccc1SC[C@@H]1CCc2cc([C@H]3CC[C@](N)(COP(=O)(O)O)C3)ccc2C1` [compound 530], on human S1P1, the IC50 was 10 to 100 nM. Besides, the EC50 was < 10 nM in assay [1], > 625 nM in assay [2] and 10 to 100 nM at hS1P1/CHO cells.
Regarding `CCCCCSC[C@@H]1CCc2cc([C@H]3CC[C@](N)(COP(=O)(O)O)C3)ccc2C1` [compound 513], the IC50 at human S1P1 was < 10 nM. Besides, the EC50 is 10 to 100 nM in assay [1], > 625 nM in assay [2] and < 10 nM on hS1P1/CHO cells.
As to `CC(C)CC/C=C/[C@@H]1CCc2cc([C@H]3CC[C@](N)(COP(=O)(O)O)C3)ccc2C1` [compound 645], the IC50 on human S1P1 is 100 to 1000 nM. Further, the EC50 in assay [1] is 10 to 100 nM; in assay [2] it was > 625 nM; at hS1P1/CHO cells it was 10 to 100 nM.
`COc1cccc(OCC[C@@H]2CCc3cc([C@H]4CC[C@](N)(COP(=O)(O)O)C4)ccc3C2)c1` [compound 544]: the IC50 at human S1P1 lay within 10 to 100 nM. The EC50 is 100 to 1000 nM in assay [1], > 625 nM in assay [2] and < 10 nM at hS1P1/CHO cells.
In the same order, the values of `CC(C)CCOC[C@@H]1CCc2cc([C@H]3CC[C@](N)(COP(=O)(O)O)C3)ccc2C1` [compound 457] are < 10 nM, 10 to 100 nM, > 625 nM and < 10 nM.
The like results for `CCCCC[C@@H]1CCc2cc([C@@H]3CC[C@@](N)(COP(=O)(O)O)C3)ccc2C1` [compound 577] were, in that order, < 10 nM, < 10 nM, > 625 nM and < 10 nM.
The like results for `N[C@]1(COP(=O)(O)O)CC[C@H](c2ccc3c(c2)CC[C@@H](CCc2ccccc2)C3)C1` [compound 573] were, in that order, 10 to 100 nM, 10 to 100 nM, > 625 nM and 10 to 100 nM.
As for `COc1ccc(SC[C@@H]2CCc3cc([C@H]4CC[C@](N)(COP(=O)(O)O)C4)ccc3C2)cc1OC` [compound 531], at human S1P1, the IC50 was in the range of 10 to 100 nM. For the same compound, the EC50 in assay [1] was 10 to 100 nM; in assay [2], > 625 nM; on hS1P1/CHO cells it was 10 to 100 nM.
In the case of `N[C@]1(COP(=O)(O)O)CC[C@H](c2ccc3c(c2)CC[C@H](CSCCc2cnccn2)C3)C1` [compound 526], on human S1P1, the IC50 lay in the range of 10 to 100 nM. Further, the EC50 in assay [1] was 10 to 100 nM; in assay [2] it was > 625 nM; on hS1P1/CHO cells, < 10 nM.
Consider `CCSCC[C@@H]1CCc2cc([C@H]3CC[C@](N)(COP(=O)(O)O)C3)ccc2C1` [compound 533], for which, at human S1P1, the IC50 is < 10 nM. In addition, the EC50 in assay [1] was < 10 nM; in assay [2], > 625 nM; at hS1P1/CHO cells, < 10 nM.
Turning to `CC(C)(C)CCOC[C@@H]1CCc2cc([C@H]3CC[C@](N)(COP(=O)(O)O)C3)ccc2C1` [compound 464], at human S1P1, the IC50 is < 10 nM. The EC50 is < 10 nM in assay [1], > 625 nM in assay [2] and 10 to 100 nM on hS1P1/CHO cells.
Consider `COCCC/C=C/[C@H]1CCc2cc([C@H]3CC[C@](N)(COP(=O)(O)O)C3)ccc2C1` [compound 638], for which the IC50 at human S1P1 is < 10 nM. For the same compound, the EC50 in assay [1] was 10 to 100 nM; in assay [2] it was > 100 nM; on hS1P1/CHO cells it was < 10 nM.
`CC/C=C/CC[C@H]1CCc2cc([C@H]3CC[C@](N)(COP(=O)(O)O)C3)ccc2C1` [compound 658]: the IC50 on human S1P1 is < 10 nM. For the same compound, the results for the EC50 (in assay [1]; in assay [2]; at hS1P1/CHO cells) were 10 to 100 nM, > 625 nM and < 10 nM, respectively.
